ChEMBL document CHEMBL5523667, “Blood-stage antimalarial activity, favourable metabolic stability and in vivo toxicity of novel piperazine linked 7-chloroquinoline-triazole conjugates” (Eur J Med Chem, 2024)
Activity calls are given as the source filed them. No cut-off for these calls is given here.

Columns and labels:
[1] = test system: Plasmodium falciparum; assay: Antimalarial activity against chloroquine-sensitive Plasmodium falciparum 3D7 assessed as growth inhibition at 1 uM relative to control; format: functional; parameters: scale not given: the % may be the effect or the level left
[2] = test system: Plasmodium falciparum; assay: Antimalarial activity against chloroquine-sensitive Plasmodium falciparum 3D7 assessed as growth inhibition at 1 to 2 uM; format: functional, organism-based; conditions: dose 1-2 µM
[3] = test system: Hemozoin; assay: Inhibition of beta-hematin formation in Plasmodium falciparum by UV-visible SpectraMax P340 plate reader analysis
[4] = test system: Plasmodium falciparum; assay: Resistance index, ratio of IC50 for antimalarial activity against chloroquine-resistant Plasmodium falciparum K1 to IC50 for antimalarial activity against chloroquine-sensitive Plasmodium falciparum NF54; format: functional
[5] = test system: Plasmodium falciparum; assay: Antimalarial activity against chloroquine-sensitive Plasmodium falciparum NF54 assessed as inhibition of parasite growth by lactate dehydrogenase assay; format: functional, organism-based
[6] = test system: Plasmodium falciparum; assay: Antimalarial activity against chloroquine-resistant Plasmodium falciparum K1 assessed as inhibition of parasite growth by lactate dehydrogenase assay; format: functional, organism-based
[7] = Cytotoxicity against CHO cells assessed as reduction in cell viability by MTT assay; format: toxicity, cell-based; conditions: Chinese hamster (Cricetulus griseus)
[8] = Selectivity index, ratio of IC50 for cytotoxicity against CHO cells to IC50 for antimalarial activity against chloroquine-sensitive Plasmodium falciparum NF54; format: toxicity, cell-based; conditions: hamster, CHO cells versus Plasmodium falciparum NF54; read-out: Ratio IC50
[9] = test system: Plasmodium falciparum; assay: Antimalarial activity against chloroquine-sensitive Plasmodium falciparum 3D7 assessed as growth inhibition at 1 uM; format: functional, organism-based
[10] = biological target: T1, Falcipain 2 (Plasmodium falciparum, UniProt Q9N6S8); assay: Binding affinity to N-terminal 6His-tagged recombinant Plasmodium falciparum FP2 expressed in Escherichia coli M15 assessed as dissociation constant incubated for 15 mins in presence of lysine reactive dye by microscale thermophoretic analysis
T1 sequence (Q9N6S8 whole entry): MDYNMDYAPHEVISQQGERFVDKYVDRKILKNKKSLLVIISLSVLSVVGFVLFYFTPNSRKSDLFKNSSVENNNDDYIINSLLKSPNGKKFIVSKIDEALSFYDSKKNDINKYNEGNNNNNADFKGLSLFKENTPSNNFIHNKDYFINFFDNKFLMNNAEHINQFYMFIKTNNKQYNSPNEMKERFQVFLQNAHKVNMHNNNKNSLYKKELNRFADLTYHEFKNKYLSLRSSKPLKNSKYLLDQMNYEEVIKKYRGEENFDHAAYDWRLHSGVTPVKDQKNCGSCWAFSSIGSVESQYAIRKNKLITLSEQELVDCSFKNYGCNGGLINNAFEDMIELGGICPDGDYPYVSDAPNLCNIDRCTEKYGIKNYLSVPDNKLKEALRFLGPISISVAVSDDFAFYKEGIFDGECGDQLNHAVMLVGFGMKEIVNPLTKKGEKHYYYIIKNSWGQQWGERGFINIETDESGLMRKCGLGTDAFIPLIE

[11] = test system: Plasmodium falciparum; assay: Antimalarial activity against schizont stage Plasmodium falciparum infected in erythrocytes assessed as reduction in proteolytic activity at 5 uM pre-incubated for 1 hr followed by Z-Phe-Arg-AMC addition and measured after 5 to 10 mins by confocal microscopic analysis relative to control; format: functional, Erythrocyte; parameters: scale not given: the % may be the effect or the level left; conditions: time 65-70 min
[12] = test system: Plasmodium falciparum; assay: Antimalarial activity against synchronized ring stage Plasmodium falciparum assessed as accumulation of free heme at 25 to 100 nM incubated for 20 hrs by absorbance based analysis; format: functional, organism-based; conditions: dose 25-100 nM
[13] = test system: Plasmodium falciparum; assay: Antimalarial activity against synchronized ring stage Plasmodium falciparum assessed as reduction in hemozoin level at 25 to 100 nM incubated for 20 hrs by absorbance based analysis; format: functional, organism-based; conditions: dose 25-100 nM

With `Cc1ccccc1-n1cc(CN2CCN(c3ccnc4cc(Cl)ccc34)CC2)nn1` the Activity [1] was >50%.
With `COC(=O)[C@H](Cc1ccccc1)NC(=O)Cn1cc(CN2CCN(c3ccnc4cc(Cl)ccc34)CC2)nn1` the Activity [2] was “Active”.
For `O=C(Cn1cc(CN2CCN(c3ccnc4cc(Cl)ccc34)CC2)nn1)Nc1cccc(F)c1`, the IC50 [3] was 10.6 µM, the “Ratio IC50” value [4] was 1.7 and the IC50 [5] was 1.69 µM. For the same molecule, the IC50 [6] was 2.92 µM, the IC50 [7] was 146 µM and the selectivity ratio [8] was 86.5.
In the case of `Clc1ccc2c(N3CCN(Cc4cn(-c5ccnc6ccccc56)nn4)CC3)ccnc2c1`, the Activity [2] is reported as “Active”.
With `O=C(Cn1cc(CN2CCN(c3ccnc4cc(Cl)ccc34)CC2)nn1)Nc1ccc(Cl)cc1` the IC50 [3] was 8.4 µM and the IC50 [5] was 4.68 µM.
Molecule `COc1ccccc1NC(=O)Cn1cc(CN2CCN(c3ccnc4cc(Cl)ccc34)CC2)nn1` has an IC50 [3] of 14 µM and an IC50 [5] of 3.26 µM.
`O=C(Cn1cc(CN2CCN(c3ccnc4cc(Cl)ccc34)CC2)nn1)Nc1ccc([N+](=O)[O-])cc1` gave an IC50 [3] of 28.9 µM and an IC50 [5] of 3.23 µM.
For `Clc1ccc2c(N3CCN(Cc4cn(-c5cccc6ccccc56)nn4)CC3)ccnc2c1`, the Activity [2] was “inactive”.
For `Cc1cccc(NC(=O)Cn2cc(CN3CCN(c4ccnc5cc(Cl)ccc45)CC3)nn2)c1`, the IC50 [3] was 17.2 µM and the IC50 [5] was 3.5 µM.
Work on `O=C(Cn1cc(CN2CCN(c3ccnc4cc(Cl)ccc34)CC2)nn1)Nc1ccccc1F` yielded an IC50 [3] of 21.3 µM and an IC50 [5] of 3.16 µM.
In the case of `Clc1ccc2c(N3CCN(Cc4cn(-c5ccccc5Cl)nn4)CC3)ccnc2c1`, the Activity [1] is reported as >50%.
`O=C(Cn1cc(CN2CCN(c3ccnc4cc(Cl)ccc34)CC2)nn1)Nc1ccccc1` showed an IC50 [3] of 19.8 µM and an IC50 [5] of 4.98 µM.
`COc1ccc(NC(=O)Cn2cc(CN3CCN(c4ccnc5cc(Cl)ccc45)CC3)nn2)cc1` gave an IC50 [3] of 19.7 µM and an IC50 [5] of 6.73 µM.
For `COC(=O)[C@H](C)NC(=O)Cn1cc(COc2cccc3ccccc23)nn1`, the Activity [2] was “Active”.
For `O=C(Cn1cc(CN2CCN(c3ccnc4cc(Cl)ccc34)CC2)nn1)Nc1ccccc1Cl`, the IC50 [3] was 19.2 µM, the “Ratio IC50” value [4] was 3.29 and the IC50 [5] was 1.79 µM. The IC50 [6] was 5.9 µM, the IC50 [7] was 126 µM and the selectivity ratio [8] was 70.3.
In the case of `Cc1ccc(NC(=O)Cn2cc(CN3CCN(c4ccnc5cc(Cl)ccc45)CC3)nn2)cc1`, the IC50 [3] is reported as 18.6 µM, the “Ratio IC50” value [4] is reported as 2.4 and the IC50 [5] is reported as 1.8 µM. It also gave an IC50 [6] of 4.37 µM, an IC50 [7] of 33.8 µM and a selectivity ratio [8] of 18.8.
With `COC(=O)c1ccc(NC(=O)Cn2cc(CN3CCN(c4ccnc5cc(Cl)ccc45)CC3)nn2)cc1` the IC50 [3] was 12.7 µM and the IC50 [5] was 4.14 µM.
For `CCOC(=O)CNC(=O)Cn1cc(CN2CCN(c3ccnc4cc(Cl)ccc34)CC2)nn1`, the Activity [2] was “Active”.
In the case of `COC(=O)[C@H](C)NC(=O)Cn1cc(CN2CCN(c3ccnc4cc(Cl)ccc34)CC2)nn1`, the Activity [9] is reported as “Active”.
With `O=C(Cn1cc(CN2CCN(c3ccnc4cc(Cl)ccc34)CC2)nn1)Nc1cccc(Cl)c1` the IC50 [3] was 15.6 µM, the “Ratio IC50” value [4] was 4.74 and the IC50 [5] was 1.83 µM. The IC50 [6] was 8.68 µM, the IC50 [7] was > 503 µM and the selectivity ratio [8] was > 275.
Molecule `CC(C)C[C@H](NC(=O)[C@H]1O[C@@H]1C(=O)O)C(=O)NCCCCN=C(N)N` [E-64] has a Kd [10] of 1.18 µM and an Activity [11] of 100%.
In the case of `O=C(OCc1cn(-c2ccnc3cc(Cl)ccc23)nn1)c1cccc([N+](=O)[O-])c1`, the Activity [2] is reported as “inactive”.
`Cc1ccccc1NC(=O)Cn1cc(CN2CCN(c3ccnc4cc(Cl)ccc34)CC2)nn1` gave an IC50 [3] of 17.4 µM and an IC50 [5] of 4.17 µM.
With `COc1cccc(NC(=O)Cn2cc(CN3CCN(c4ccnc5cc(Cl)ccc45)CC3)nn2)c1` the IC50 [3] was 17.4 µM and the IC50 [5] was 3.56 µM.
For `O=C(Cn1cc(CN2CCN(c3ccnc4cc(Cl)ccc34)CC2)nn1)Nc1ccc(F)cc1`, the IC50 [3] was 20.6 µM, the “Ratio IC50” value [4] was 1.77 and the IC50 [5] was 1.74 µM. It also gave an IC50 [6] of 3.08 µM, an IC50 [7] of 326 µM and a selectivity ratio [8] of 188.
With `Clc1ccc2c(N3CCN(Cc4cn(-c5ccnc6cc(Cl)ccc56)nn4)CC3)ccnc2c1` the Activity [2] was “Active”.
For `C[C@@H](NC(=O)Cn1cc(CN2CCN(c3ccnc4cc(Cl)ccc34)CC2)nn1)C(=O)O`, the Activity [2] was “inactive”.
In the case of `O=C(Cn1cc(CN2CCN(c3ccnc4cc(Cl)ccc34)CC2)nn1)Nc1ccccc1[N+](=O)[O-]`, the IC50 [3] is reported as 21.4 µM and the IC50 [5] is reported as 2.9 µM.
`O=C(Cn1cc(CN2CCN(c3ccnc4cc(Cl)ccc34)CC2)nn1)Nc1ccc(Br)cc1` gave an IC50 [3] of 19.4 µM and an IC50 [5] of 6.45 µM.
For `CCN(CC)CCCC(C)Nc1ccnc2cc(Cl)ccc12` (configuration not stated) [CHLOROQUINE], the IC50 [3] was 23.3 µM, the Activity [12] was “Active” and the Activity [13] was “Active”.
`CCN(CC)Cc1cc(Nc2ccnc3cc(Cl)ccc23)ccc1O` [AMODIAQUINE] gave an IC50 [3] of 10.9 µM.
For `O=[N+]([O-])c1cccc(-n2cc(CN3CCN(c4ccnc5cc(Cl)ccc45)CC3)nn2)c1`, the Activity [1] was >50%.
